# Legend:
# [1] = test system: VIM-2 expressing bacteria; conditions: cited from earlier work
# [2] = test system: IMP-1; conditions: cited from earlier work
# [3] = target: VIM-2; conditions: against VIM-2; cited from earlier work
# [4] = test system: parental (BL21) E. coli; assay: Imipenem MIC in parental E. coli; format: cell-based; conditions: Escherichia coli, read-out: imipenem MIC
# [5] = test system: BL21/VIM-2 E. coli; assay: Imipenem MIC potentiation in VIM-2 transformed E. coli; format: cell-based
SMILES,potentiation of ß-lactam antibacterial effects (in words) [1],activity towards IMP-1 (in words) [2],Ki [3],MIC [4],"fold increase of imipenem MIC, BL21/VIM-2 relative to parental BL21 [5]","MIC ([5]; Escherichia coli, read-out: imipenem MIC)"
"C#CCCOCc1nn[nH]c1CNS(=O)(=O)c1ccc(I)cc1 [Compound 1, N-((4-((but-3-ynyloxy)methyl)-1H-1,2,3-triazol-5-yl)methyl)-4-iodo-benzenesulfonamide]",did not potentiate,inactive,410 ± 30 nM,,,
C[C@@H](O)[C@H]1C(=O)N2C(C(=O)O)=C(SCCN=CN)C[C@H]12 [imipenem],,,,0.21 µg/mL,approximately 9 fold,1.85 µg/mL
"O=C(O)c1cc[c]([Hg][Cl])cc1 [pCMB, p-chloromercuribenzoic acid]",synergistic effect,,,,,
